Measured values taken from ChEMBL document CHEMBL1201862, “PubChem BioAssay data set” (2004).
The source made the active and inactive calls.

Columns and labels:
Vero = experiment: mammalian cell viability reduction – secondary assay, cytotoxicity control for West Nile virus antiviral project, dose response (AID 1650); type: functional; conditions: Chlorocebus sabaeus
HeLa = experiment: viability loss in HeLa cells – cell-based, ATP luminescence, cherry-pick samples, cytotoxicity control, dose response (AID 687004); type: functional; conditions: Homo sapiens
[1] = Trypanosoma cruzi growth suppression in host cells – NIH3T3 host cells, beta-gal luminescence, confirmation (AID 2044); type: functional, cell-based;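 also: intracellular parasites grown in NIH/3T3 mouse fibroblasts as host cells; luminescent beta-galactosidase reporter signal from transgenic T. cruzi replicating inside host cells; inhibitors lower the luminescence signal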
[2] = NIH3T3 cell viability loss – ATP luminescence, mouse fibroblasts, counter-screen, dose response (AID 2010); type: functional, cell-based;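 also: cells exposed to compound for about 90 hours before reading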
Leucine aminopeptidase = biological target: T1, Leucine aminopeptidase (Plasmodium falciparum 3D7, UniProt Q8IL11); experiment: P. falciparum M17LAP inhibitors, primary screen, biochemical, fluorogenic H-Leu-NHMec substrate, 1536-well (AID 1619); type: functional
T1 sequence (Q8IL11 whole entry): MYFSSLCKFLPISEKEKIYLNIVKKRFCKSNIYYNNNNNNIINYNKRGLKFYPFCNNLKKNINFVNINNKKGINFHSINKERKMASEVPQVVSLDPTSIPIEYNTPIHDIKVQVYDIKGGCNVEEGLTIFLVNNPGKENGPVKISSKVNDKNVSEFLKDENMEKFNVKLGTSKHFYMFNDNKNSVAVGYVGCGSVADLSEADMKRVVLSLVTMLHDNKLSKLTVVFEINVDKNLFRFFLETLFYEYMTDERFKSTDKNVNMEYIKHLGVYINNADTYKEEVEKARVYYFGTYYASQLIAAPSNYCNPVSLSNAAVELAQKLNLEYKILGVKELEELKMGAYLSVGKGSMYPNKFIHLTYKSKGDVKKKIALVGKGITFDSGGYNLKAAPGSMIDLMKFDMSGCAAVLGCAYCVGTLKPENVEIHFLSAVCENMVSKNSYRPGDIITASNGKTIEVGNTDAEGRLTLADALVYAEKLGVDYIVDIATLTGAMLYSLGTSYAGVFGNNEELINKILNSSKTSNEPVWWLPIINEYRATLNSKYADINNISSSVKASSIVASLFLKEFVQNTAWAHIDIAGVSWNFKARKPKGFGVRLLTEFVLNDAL

Aspartyl aminopeptidase = biological target: T2, Aspartyl aminopeptidase (Plasmodium falciparum 3D7, UniProt Q8I2J3); experiment: Counterscreen for inhibitors of M1 and M17 aminopeptidases: QFRET-based biochemical high throughput dose response assay for inhibitors of the Plasmodium falciparum M18 Aspartyl Aminopeptidase (PFM18AAP). [Related PubChem assays: 1619 (Screening assay (M17LAP inhibitors).), 1445 (Screening assay (M1AAP inhibitors).)]
T2 sequence (Q8I2J3 whole entry): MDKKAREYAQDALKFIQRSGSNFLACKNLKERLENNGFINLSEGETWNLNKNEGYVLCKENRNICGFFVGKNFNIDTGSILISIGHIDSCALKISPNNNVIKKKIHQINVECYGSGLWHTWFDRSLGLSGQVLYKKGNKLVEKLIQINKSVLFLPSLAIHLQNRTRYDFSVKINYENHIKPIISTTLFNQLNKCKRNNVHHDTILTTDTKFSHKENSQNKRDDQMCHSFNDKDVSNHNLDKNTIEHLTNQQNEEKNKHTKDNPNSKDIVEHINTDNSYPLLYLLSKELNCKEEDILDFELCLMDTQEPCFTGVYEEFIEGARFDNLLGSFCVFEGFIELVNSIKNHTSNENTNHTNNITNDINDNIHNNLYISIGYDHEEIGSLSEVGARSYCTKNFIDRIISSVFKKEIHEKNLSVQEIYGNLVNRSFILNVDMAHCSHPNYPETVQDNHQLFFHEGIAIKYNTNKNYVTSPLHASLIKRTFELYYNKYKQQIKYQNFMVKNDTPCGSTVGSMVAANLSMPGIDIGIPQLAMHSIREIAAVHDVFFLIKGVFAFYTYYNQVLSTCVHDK

Procathepsin L = Procathepsin L (Homo sapiens, UniProt P07711); experiment: CTSL1 protease inhibition – biochemical, QFRET, 1536-well, counter-screen for M1/M17 aminopeptidase inhibitor project, dose response (AID 2214)
[3] = system: Streptococcus sp. 'group A'; experiment: Streptococcus pyogenes SK(-)GAS viability under kanamycin – luminescence, BacTiterGlo, confirmation, counter-screen for streptokinase expression inhibitor project, dose response (AID 1900); type: functional, organism-based
Streptokinase A = biological target: T3, Streptokinase A (Streptococcus pyogenes serotype M1, UniProt P10520); experiment: viability-normalized secreted streptokinase activity reduction – plasminogen activation absorbance, OD405, dose response (AID 1914); type: functional, Streptococcus pyogenes M1 GAS;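 also: secreted streptokinase activity via plasminogen activation per viability signal from cell pellet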
T3 sequence (P10520 whole entry): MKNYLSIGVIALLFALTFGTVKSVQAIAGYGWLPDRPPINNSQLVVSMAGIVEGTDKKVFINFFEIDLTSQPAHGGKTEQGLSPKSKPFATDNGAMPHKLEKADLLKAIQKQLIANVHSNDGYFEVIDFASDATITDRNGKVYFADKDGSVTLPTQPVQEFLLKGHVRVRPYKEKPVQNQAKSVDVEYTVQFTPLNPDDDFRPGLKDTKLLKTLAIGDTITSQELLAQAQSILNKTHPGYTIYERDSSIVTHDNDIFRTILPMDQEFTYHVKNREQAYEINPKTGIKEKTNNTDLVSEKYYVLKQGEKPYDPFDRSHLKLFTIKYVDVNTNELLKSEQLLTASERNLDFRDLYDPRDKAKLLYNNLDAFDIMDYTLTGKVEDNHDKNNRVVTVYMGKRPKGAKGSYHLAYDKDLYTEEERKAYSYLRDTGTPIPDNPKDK

Streptococcus = experiment: GAS UMAA2166 growth inhibition – luminescence, BacTiterGlo, counter-screen for streptokinase expression inhibitor project, dose response (AID 1915); type: functional, organism-based;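 also: potency for reduction of bacterial viability or growth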
[4] = biological target: Disintegrin and metalloproteinase domain-containing protein 17 (Homo sapiens, UniProt P78536); experiment: exosite inhibitors of ADAM17, dose response, biochemical (AID 743260)
[5] = inhibition of ADAM10 peptide cleavage – biochemical, FRET peptide substrate, recombinant human ADAM10, selectivity assay for ADAM17 exosite inhibitor project, dose response (AID 743259);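 also: ADAM10 enzyme cleaving a FRET peptide substrate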
[6] = biological target: T4, Apoptotic protease-activating factor 1 (Homo sapiens, UniProt O14727); type: functional
T4 sequence (O14727 whole entry): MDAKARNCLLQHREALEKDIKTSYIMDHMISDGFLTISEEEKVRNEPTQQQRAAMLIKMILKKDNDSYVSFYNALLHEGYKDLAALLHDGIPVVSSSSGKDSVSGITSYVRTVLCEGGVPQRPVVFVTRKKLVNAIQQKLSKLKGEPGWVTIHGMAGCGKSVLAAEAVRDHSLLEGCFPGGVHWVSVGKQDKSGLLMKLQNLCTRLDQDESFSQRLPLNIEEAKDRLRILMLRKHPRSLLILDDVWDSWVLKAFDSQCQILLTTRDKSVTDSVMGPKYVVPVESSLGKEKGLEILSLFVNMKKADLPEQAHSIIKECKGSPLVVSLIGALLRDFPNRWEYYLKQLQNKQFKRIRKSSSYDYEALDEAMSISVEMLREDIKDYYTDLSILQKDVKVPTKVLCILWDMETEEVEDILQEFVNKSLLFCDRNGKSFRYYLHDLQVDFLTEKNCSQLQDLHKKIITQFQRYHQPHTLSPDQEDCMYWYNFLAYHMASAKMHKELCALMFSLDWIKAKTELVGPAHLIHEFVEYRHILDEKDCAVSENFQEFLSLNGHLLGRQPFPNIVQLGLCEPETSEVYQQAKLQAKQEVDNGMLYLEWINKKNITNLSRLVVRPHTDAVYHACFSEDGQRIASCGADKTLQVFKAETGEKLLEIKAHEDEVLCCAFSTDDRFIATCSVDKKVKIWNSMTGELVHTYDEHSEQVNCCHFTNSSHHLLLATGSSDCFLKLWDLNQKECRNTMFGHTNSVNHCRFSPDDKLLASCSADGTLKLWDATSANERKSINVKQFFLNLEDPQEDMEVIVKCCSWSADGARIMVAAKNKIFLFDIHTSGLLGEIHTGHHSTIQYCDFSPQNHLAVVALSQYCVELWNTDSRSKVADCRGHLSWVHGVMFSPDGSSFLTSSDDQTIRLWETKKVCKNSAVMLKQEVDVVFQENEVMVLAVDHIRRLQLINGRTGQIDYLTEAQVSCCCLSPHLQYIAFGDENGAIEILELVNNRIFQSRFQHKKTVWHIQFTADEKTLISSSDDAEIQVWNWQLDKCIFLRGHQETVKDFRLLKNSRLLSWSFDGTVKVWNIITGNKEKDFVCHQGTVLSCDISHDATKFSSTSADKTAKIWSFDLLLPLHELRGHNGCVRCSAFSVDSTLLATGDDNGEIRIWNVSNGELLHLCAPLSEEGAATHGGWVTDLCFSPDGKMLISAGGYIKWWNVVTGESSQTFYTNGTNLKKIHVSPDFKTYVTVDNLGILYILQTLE

Disintegrin and metalloproteinase domain-containing protein 17, sequence (P78536 whole entry, the tested form may be a part): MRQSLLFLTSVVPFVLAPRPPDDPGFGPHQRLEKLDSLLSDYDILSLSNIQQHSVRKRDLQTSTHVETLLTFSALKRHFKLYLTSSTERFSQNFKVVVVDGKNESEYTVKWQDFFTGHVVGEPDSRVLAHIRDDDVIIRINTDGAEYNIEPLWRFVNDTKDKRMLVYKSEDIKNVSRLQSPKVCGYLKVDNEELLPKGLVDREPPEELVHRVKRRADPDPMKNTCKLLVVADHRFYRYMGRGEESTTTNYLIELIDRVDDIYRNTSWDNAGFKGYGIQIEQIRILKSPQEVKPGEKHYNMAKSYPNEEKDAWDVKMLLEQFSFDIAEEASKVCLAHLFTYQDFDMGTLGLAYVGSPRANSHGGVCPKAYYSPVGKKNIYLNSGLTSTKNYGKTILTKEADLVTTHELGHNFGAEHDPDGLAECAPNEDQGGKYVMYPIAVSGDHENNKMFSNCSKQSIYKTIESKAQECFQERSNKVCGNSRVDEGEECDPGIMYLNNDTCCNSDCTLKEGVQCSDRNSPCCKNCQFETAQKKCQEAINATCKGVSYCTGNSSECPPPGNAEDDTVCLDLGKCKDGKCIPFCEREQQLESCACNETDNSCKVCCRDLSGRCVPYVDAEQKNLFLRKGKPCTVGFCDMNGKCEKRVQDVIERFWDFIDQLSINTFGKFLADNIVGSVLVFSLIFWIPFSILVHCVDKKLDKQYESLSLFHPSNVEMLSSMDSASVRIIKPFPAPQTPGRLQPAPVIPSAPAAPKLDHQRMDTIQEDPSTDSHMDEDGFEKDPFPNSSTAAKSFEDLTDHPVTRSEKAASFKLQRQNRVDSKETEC
Procathepsin L, sequence (P07711 whole entry): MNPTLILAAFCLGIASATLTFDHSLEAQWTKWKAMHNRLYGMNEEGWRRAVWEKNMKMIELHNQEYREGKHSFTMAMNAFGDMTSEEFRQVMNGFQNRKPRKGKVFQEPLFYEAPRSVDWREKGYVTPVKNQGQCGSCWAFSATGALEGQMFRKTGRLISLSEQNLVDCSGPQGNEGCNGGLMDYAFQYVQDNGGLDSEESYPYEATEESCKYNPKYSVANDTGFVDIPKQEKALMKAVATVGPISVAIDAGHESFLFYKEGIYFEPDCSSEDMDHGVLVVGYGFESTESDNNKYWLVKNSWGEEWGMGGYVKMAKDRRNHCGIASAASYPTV

For O=C1COc2ccc(C(=O)CSc3nc4ccccc4c(=O)n3-c3ccc(Cl)c(Cl)c3)cc2N1, the CC50 (Vero) was 16.6 µM (active).

With COc1cc(C(=O)Oc2ccccc2N)cc(OC)c1OC the AC50 (HeLa) was > 52 µM (inactive).

In the case of O=C(CCN1C(=O)/C(=C/c2ccc(F)cc2)SC1=S)N[C@@H](CO)Cc1ccccc1, the CC50 (Vero) is reported as 49.9 µM (active).

In the case of CC(C)(CN=C(S)NCCc1ccccc1)CN=C(S)NCCc1ccccc1, the CC50 (Vero) is reported as 23.7 µM (active), the EC50 [1] is reported as 3.35 µM (active) and the EC50 [2] is reported as > 60 µM (not active).

For COc1ccc(OC)c(NC(=O)C2C(C(=O)O)C3(Cl)C(Cl)=C(Cl)C2(Cl)C3(Cl)Cl)c1 (stereo not drawn), the IC50 (Leucine aminopeptidase) was < 1 µM (active), the IC50 (Aspartyl aminopeptidase) was > 73.5 µM (not active) and the IC50 (Procathepsin L) was > 59.6 µM (not active).

In the case of CC1CCCCN1C(=O)CSc1nc(C2CC2)nc2c1cnn2-c1ccccc1 (stereo not drawn), the AC50 (HeLa) is reported as > 52 µM (inactive).

With COc1ccc(NC(S)=Nc2nc(CC(=O)Nc3ccccc3OC)cs2)cc1 the EC50 [3] was 6.09 µM (active), the EC50 (Streptokinase A) was > 150 µM (not active) and the EC50 (Streptococcus) was 17.3 µM (active). For the same compound, the IC50 [4] was > 69.5 µM (inactive) and the IC50 [5] was > 2.58 µM (active).

For COC(=O)C1=C(c2ccc(F)cc2OCc2ccccc2)C[C@@H]2CC[C@H]1N2C(=O)NCc1cccc(C(F)(F)F)c1, the IC50 [4] was > 69.5 µM (inactive) and the IC50 [5] was > 69.5 µM (inactive).

For COCCN(Cc1ccccc1)C(=O)c1cccc(S(=O)(=O)N2CCN(c3ccccc3)CC2)c1, the IC50 [6] was > 100 µM (inactive).
